# Experiments:
# human brain = conditions: in vivo; cited from earlier work
# [1] = Adverse effects after bolus intravenous injection of DDG, rats; format: in vivo, rat; conditions: bolus i.v., 37 mg/kg to 248 mg/kg (mice and rats), awake up to 78 min
# Protocol: (§1) Mice and rats, males and females at equal numbers, were intravenously injected with a bolus of varying doses of deuterated 2-deoxy-D-glucose (2-DG, DDG, with varying numbers and positions of deuteration). DDGs were provided by CortecNet, France. The injection was performed under sedation in all rats (18) and in 12 of 18 mice, after which the animals woke up within 1 minute. […] Further to euthanasia, the brain, liver, kidneys, heart, and muscle were excised and immediately placed in liquid nitrogen. The frozen tissue samples were kept at −80 °C until further processing.
# (§2) The animals were observed awake for up to 78 min after the injection. The injection bolus was administered in less than 1 s and ranged from 0.1 mL for mice (ca. 25-40 g) to 0.6 mL for rats (ca. 120-160 g).
# [2] = Biodistribution of deuterated 2-deoxy-D-glucose, 2H-NMR of tissue extracts, rats; format: in vivo, rat; conditions: for concentration: [D4]DDG bolus i.v., 37-55 mg/kg (non-labeled 2DG equivalent)
# Protocol: as §1
# (§3) Extraction of the water-soluble metabolites and the lipids was carried out using the dual-phase extraction procedure as described previously [Katz-Brull R, et al. Differential routing of choline in implanted breast cancer and normal organs. Article. Magnetic Resonance in Medicine. July 2001; 46(1):31-38. doi:10.1002/mrm.1157]. Briefly, a frozen sample is placed in 10 mL of ice-cold methanol containing 0.4 mM phenyl phosphonic acid for at least 1 hour. The tissue is then homogenized in ice-cold methanol using a tissue homogenizer. Equal volumes of chloroform and water are then added to the sample tube, and the mixture is vortexed and vigorously shaken. The samples are allowed to stand at 4 °C for at least 24 hours for phase separation. The methanol-water phase is aspirated, treated with Chelex to remove divalent ions, and then lyophilized for at least 24 hours. When the samples are dry (as powder), they are redissolved in 0.5 mL of double-distilled water and transferred to 5-mm NMR tubes for scanning. The samples are scanned in a 9.4 T NMR spectrometer.
# [3] = Biodistribution of deuterated 2-deoxy-D-glucose, 2H-NMR of tissue extracts, mice; format: in vivo, mouse; conditions: [D4]DDG bolus i.v., 43-45 mg/kg (non-labeled 2DG equivalent)
# Protocol: as §1, §3
# [4] = Adverse effects after bolus intravenous injection of DDG, mice; format: in vivo, mouse; conditions: bolus i.v., 37 mg/kg to 248 mg/kg (mice and rats), awake up to 78 min
# Protocol: as §1, §2
# [5] = n=2, read-out: concentration in the heart
SMILES,accumulation in the human brain (human brain),adverse effects [1],"2H-NMR signal in rat brain extract ([2]; FIG. 7, 45 mg/kg, awake 36 min, 9.4 T)","2H-NMR signal in rat brain extract ([2]; FIG. 7 legend, awake 30 min)","concentration [2, 5] [µM]","concentration ([2]; n=6, read-out: concentration in the brain) [µM]","concentration ([2]; n=6, read-out: concentration in the muscle) [µM]","concentration ([3]; n=1, read-out: concentration in the kidneys) [µM]","concentration [3, 5] [µM]","concentration ([3]; n=2, read-out: concentration in the liver) [µM]",adverse effects [4]
OC[C@H]1OC(O)[C@H](F)[C@@H](O)[C@@H]1O (stereo partly drawn) [[18F]-fluoro-2-deoxy-D-glucose],accumulates at very high levels in the human brain,,,,,,,,,,
"[2H]C([2H])(O)[C@H]1OC(O)C[C@@]([2H])(O)[C@]1([2H])O (stereo partly drawn) [[D4]DDG, [3,4,6,6-D4]2-deoxy-D-glucose]",,no adverse effects,due to the deuterons of [D4]DDG,"the right signal (full arrow) is of deuterons of [3,4,6,6-D4]2-deoxy-D-glucose",2700,1600,80,1790,3140,230,no adverse effects

# Reference: US20260355357A1, “DIAGNOSTIC AGENTS AND USES THEREOF” (HADASIT MEDICAL RESEARCH SERVICES AND DEVELOPMENT LTD., priority 2023, published 2026)
